{
  "source": "patent US7998983B2",
  "about": "“Substituted isoxazoles as fungicides” (Syngenta Limited, priority 2004, dated 2011)",
  "key": {"[1]": {"system": "Sclerotinia homoeocarpa (common name: dollar spot)", "test": "Turf trial, dollar spot on creeping bentgrass", "assay_type": "in vivo", "conditions": "creeping bentgrass plots; Compound 4 as 25% wetable powder at 2.2, 4.4, 8.8 g a.i. per 1000 square feet; mean disease <3.0% acceptable", "text": "Penncross during the spring."}, "[2]": {"system": "creeping bentgrass cv. Penncross", "test": "Turf trial, turfgrass quality and phytotoxicity", "conditions": "creeping bentgrass plots inoculated with S. homoeocarpa; ratings >6.0 acceptable", "procedure": "A fungicide trial was conducted on a 15-yr-old sward of creeping bentgrass cv. Penncross during the spring. The turfgrass was maintained using cultural practices similar to those used in maintenance of bentgrass golf greens in the southern United States. Treatments were arranged as plots (0.5×1.0 m) in a randomized complete block design with four replications. […] All other fungicides were applied according to their labels (Banner MAXX 1.3ME and Insignia 20WG). The turfgrass was inoculated with autoclaved tall fescue seed infested with Sclerotinia homoeocarpa (common name: dollar spot) six hours after application of the initial preventive treatments. The plots received approximately 0.24 inches of irrigation water daily at 1700 hour to ensure nightly foliar wetness for infection. The Horsfall-Barratt rating scale was used to visually estimate disease severity at approximately 7-day intervals from the initial application date. Turfgrass quality was assessed using a 0-9 scale where 0=a necrotic, thin foliar canopy and 9=a dark green, dense foliar canopy. Disease and quality values were subjected to analysis of variance and means were statistically separated using the Scott-Knott cluster analysis procedure."}, "[3]": {"system": "leaf rust (Puccinia recondita: PUCCRT)", "test": "Cereal field trial, leaf rust on wheat", "assay_type": "in vivo", "conditions": "winter wheat field trial; 9.5% emulsifiable concentrate; 140, 280 and 421 g a.i./ha; low natural incidence", "protocol": "(§1) A field trial of Compound 4 was conducted on soft red winter wheat cultivar Sisson. Very dry weather gave rise to a low natural incidence of leaf rust (Puccinia recondita: PUCCRT) late in the trial. Compound 4 was applied as a 9.5% active ingredient (weight/weight) emulsifiable concentrate of the following formula (each weight/weight): 9.5% Compound 4, 9.5% m-Pyrol, 65% Surfadone LP-100, 6% Surfadone LP-300, 5% Toximul 3463F, and 5% Toximul 3464F. Rates of Compound 4 application were as follows (grams active ingredient per hectare: g a.i./ha): 140, 280 and 421."}, "[4]": {"system": "soft red winter wheat cultivar Sisson", "test": "Cereal field trial, yield", "assay_type": "in vivo", "conditions": "highest rate of Compound 4 (421 g a.i./ha)", "protocol": "as §1"}},
  "data": [
    {"smiles": "OC(c1cccnc1)c1c(-c2ccc(Cl)cc2Cl)noc1-c1cccc(Cl)c1", "note": "(stereo not shown) [Compound 4, 5-(3-Chlorophenyl)-3-(2,4-dichlorophenyl)-4-[(3-pyridyl)hydroxymethyl]-isoxazole]", "values": [
      {"measurement": "Dollar spot disease severity / control (Horsfall-Barratt rating)", "setting": "[1]", "value": "effective control on dollar spot during most of the trial period"},
      {"measurement": "Turfgrass quality (0-9 scale)", "setting": "[2]", "value": "Highest quality ratings"},
      {"measurement": "Control of leaf rust incidence", "setting": "[3]", "value": "good control of the rust incidence"},
      {"measurement": "Yield enhancement", "setting": "[4]", "value": "Yield enhancement was observed"}
    ]}
  ]
}
